We go through two compounds from BindingDB's records for patent US9932341 (Incyte, 2018).

This test has as its target T1, Phosphatidylinositol 4,5-bisphosphate 3-kinase catalytic subunit delta isoform (Homo sapiens, UniProt O00329).
T1 sequence (O00329 whole entry): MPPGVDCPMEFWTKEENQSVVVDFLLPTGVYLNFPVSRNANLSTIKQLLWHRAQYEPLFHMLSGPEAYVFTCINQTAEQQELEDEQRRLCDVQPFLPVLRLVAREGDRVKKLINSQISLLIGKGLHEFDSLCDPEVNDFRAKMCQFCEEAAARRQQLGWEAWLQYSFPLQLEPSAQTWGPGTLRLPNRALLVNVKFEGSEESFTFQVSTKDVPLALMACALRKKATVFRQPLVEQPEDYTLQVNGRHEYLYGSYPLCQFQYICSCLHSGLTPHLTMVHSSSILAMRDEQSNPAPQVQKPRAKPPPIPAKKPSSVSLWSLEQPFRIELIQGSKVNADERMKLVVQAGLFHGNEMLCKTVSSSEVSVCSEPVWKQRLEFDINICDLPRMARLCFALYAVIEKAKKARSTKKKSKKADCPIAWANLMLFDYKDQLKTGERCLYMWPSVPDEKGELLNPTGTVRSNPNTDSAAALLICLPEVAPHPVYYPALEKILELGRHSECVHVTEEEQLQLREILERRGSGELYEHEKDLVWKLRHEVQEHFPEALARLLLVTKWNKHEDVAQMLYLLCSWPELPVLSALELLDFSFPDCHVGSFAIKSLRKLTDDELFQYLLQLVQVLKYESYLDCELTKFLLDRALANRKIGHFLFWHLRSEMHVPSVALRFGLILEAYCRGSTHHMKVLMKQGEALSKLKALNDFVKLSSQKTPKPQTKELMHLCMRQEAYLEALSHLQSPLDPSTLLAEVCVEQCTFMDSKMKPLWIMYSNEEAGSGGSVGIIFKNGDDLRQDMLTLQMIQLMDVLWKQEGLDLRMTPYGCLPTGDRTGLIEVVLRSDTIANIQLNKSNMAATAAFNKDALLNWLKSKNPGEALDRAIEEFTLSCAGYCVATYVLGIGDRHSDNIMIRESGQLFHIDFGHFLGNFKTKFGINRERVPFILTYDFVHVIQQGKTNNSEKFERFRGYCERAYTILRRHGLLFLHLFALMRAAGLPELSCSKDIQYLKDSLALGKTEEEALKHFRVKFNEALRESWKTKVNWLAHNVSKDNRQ
The test can be described thus: Scintillation Proximity Assay. The method, then: The kinase reaction was conducted in polystyrene 384-well matrix white plate from Thermo Fisher Scientific in a final volume of 25 uL. Inhibitors were first diluted serially in DMSO and added to the plate wells before the addition of other reaction components. The final concentration of DMSO in the assay was 0.5%. The PI3K assays were carried out at room temperature in 20 mM MOPS, pH 6.7, 10 mM MgCl2, 5 mM DTT and CHAPS 0.03%. Reactions were initiated by the addition of ATP, the final reaction mixture consisted of 20 uM PIP2, 20 uM ATP, 0.2 uCi [γ-33P] ATP, 4 nM PI3K . […] 25 mM EDTA, 400 uM ATP. The final concentration of SPA beads was 1.0 mg/mL. After the plate sealing, plates were shaken overnight at room temperature and centrifuged at 1800 rpm for 10 minutes, the radioactivity of the product was determined by scintillation counting on Topcount (PerkinElmer).

Bounds are passed on as bounds.

For the compound `COc1c(C(C)n2nc(C)c3c(N)ncnc32)cc(Cl)c(C)c1-c1ccc(C(=O)N(C)CCO)nc1` (configuration not stated) [US9932341, Example 24], the IC50 (as a rule, the point on the concentration scale where inhibition reaches its midpoint) is less than 10 nM. `COc1c(C(C)n2nc(C)c3c(N)ncnc32)cc(Cl)c(C)c1-c1cncnc1` (configuration not stated) [US9932341, Example 168]: the IC50 is less than 10 nM.
